Earlier results as cited in article PMC10326281, “Insights into the mechanisms governing P01 scorpion toxin effect against U87 glioblastoma cells oncogenesis” (Frontiers in Pharmacology, 2023).
Where two headings read alike, the source gives them in different places. Bridges are numbered along the chain shown (N, C = ends). Where no end group is shown, it is not given here.

Tests used:
Kv1.3 potassium channel = conditions: ref Wang, 2004; cited from earlier work
Source text: (§1) Recently, the anticancer activities of some natural peptides/toxins attracted considerable attention in drug discovery and have been the object of several studies showing that they affect tumor growth, induce apoptosis and inhibit cancer metastasis and angiogenesis in vitro and in vivo ([Ding et al., 2014]; [Majc et al., 2022]). Several examples of the activity of these peptides/toxins as well as their effect on K^+ channels have been recently summarized in many reviews.

BKCa channel = conditions: ref Wang, 2004; cited from earlier work
Source text: as §1, with “reviews. Thes ...” for “reviews.”

IKCa/SK4 channel = conditions: ref Wang, 2004; cited from earlier work
Source text: as §1, with “reviews. Thes ...” for “reviews.”

[1] = tested on: endometrial cancer cell lines; conditions: ref Wang, 2004; cited from earlier work
Source text: as §1, with “reviews. Thes ...” for “reviews.”

[2] = tested on: pancreatic cancer cell lines; conditions: ref Wang, 2004; cited from earlier work
Source text: as §1, with “reviews. Thes ...” for “reviews.”

rSK2 channel = conditions: cited from earlier work
Source text: (§2) Our team has initiated the fractionation of Aa scorpion venom, in order to identify scorpion peptides targeting potassium channels involved in the oncological process. Thus, we succeeded to isolate one peptide well represented in this venom. Based on its N-terminal sequence and its mass fingerprint this peptide corresponded to the P01 toxin, previously described by ([Zerrouk et al., 1996]).

U87 cells [3] = conditions: ref Pyrko et al., 2005, cited from earlier work
Source text: (§3) Thus, P01 and KAaH1 inhibited the U87 cell migration with different mechanisms. […] For instance, PIVL, a Kunitz-type serine protease inhibitor, from the venom of the Tunisian snake Macrovipera lebetina transmediterranea, re ...

integrins = conditions: tumor cell and angiogenic endothelial cell surface; ref Schmitmeier et al., 2005; cited from earlier work
Source text: as §3

SK2 channel = conditions: HEK293 cells; ref Hosseini et al., 2001; cited from earlier work
Source text: (§4) Besides, it seems that the effect of P01 on U87 cell proliferation is not due only to its blocking activity of SK2 channels, but also by targeting a complex of membrane receptors and/or effectors expressed in U87 cells, including SK2. […] These authors noted that the concentrations necessary for blocking proliferation were higher than those necessary for blocking these ion ...

U87 cells [4] = conditions: ref Abdullaev et al., 2010; cited from earlier work
Source text: as §4

hSK1 channel [5] = conditions: 2000, cited from earlier work
Source text: as §2

hSK1 channel [6] = conditions: ref Shah and Haylett, 2000, cited from earlier work
Source text: This can be explained by the differential expression of either functional SK2 isoforms or other membrane receptors between HEK293 and Jurkat cells.

charybdotoxin
block of Kv1.3 (Kv1.3 potassium channel): known blocker
block of BKCa (BKCa channel): known blocker
block of IKCa/SK4 (IKCa/SK4 channel): known blocker
proliferation and cell cycle progression [1]: inhibited proliferation and cell cycle progression
proliferation and cell cycle progression [2]: inhibited proliferation and cell cycle progression

leiurotoxin I: first toxin isolated from Leiurus quintestriatus scorpin (AFCNLRMCQLSCRSLGLLGKCIGDKCECVKH-NH2; disulfide 12-28, 3-21, 8-26; ends not checked; UniProt P16341 1-31, looked up)
IC50 (rSK2 channel; HEK293 cells, ref Hosseini et al., 2001): 0.28 nM

contortrostatin
survival (U87 cells [3]; rodent glioma model): prolongation of survival
tumor progression (U87 cells [3]; tumor induced by stereotactic injection of U87 cells): inhibited the tumor (induced by the stereotactically injection of U87 cells) progression
integrin binding (integrins): specifically binds to certain integrins

c1ccc2c(c1)c1cc[n+]2CCCCC[n+]2ccc(c3ccccc32)NCCCCCN1 [UCL1848]
IC50 (SK2 channel): 0.12 nM
effect on U87 cell proliferation (U87 cells [4]): no effect

apamin (CNCKAPETALCARRCQQH-NH2; disulfide 1-11, 3-15; ends not checked; UniProt P01500 28-45, looked up)
IC50 (hSK1 channel [5]; HEK293 cells, ref Shah and Haylett): 8 nM
IC50 (hSK1 channel [5]; HEK 293 cells, ref Strobaek et al.): 3.3 nM
IC50 (rSK2 channel; HEK 293 cells, ref Strobaek et al., 2000): 0.083 nM
IC50 (hSK1 channel [6]; COS-7 cells): 12 nM
IC50 (hSK1 channel [6]; Xenopus oocytes): 0.1 nM
